In PubChem BioAssay (NCI) one finds TGI and GI50 data, which are given here for 20 compounds.

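Method: 48-hour compound exposure of cells in 96-well plates, five concentrations, linear interpolation of endpoints. Here, GI50 denotes the concentration required for 50% inhibition of growth. The concentration for full growth arrest is given as TGI.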 A value given as a limit tells only on which side of the number the result lay.

Some test systems named below: HCT-15 colon; SK-MEL-5 melanoma; HOP-92 NSCLC; MALME-3M melanoma; HCC-2998 colon; HT29 colon; A549 NSCLC; CCRF-CEM leukemia; LOX IMVI melanoma; BT-549 breast.
Experiment in all cases: NCI-60 cell line screen, 48 h

On to `Nn1c(-c2ccccc2)nc2ccc(Br)cc2c1=O`, for which the TGI was greater than 100 µM in the experiment with HCT-15 colon; greater than 100 µM in the experiment on SK-MEL-5 melanoma; 98 µM with HOP-92 NSCLC; greater than 100 µM with MALME-3M melanoma; greater than 100 µM with HCC-2998 colon; greater than 100 µM in the experiment with HT29 colon. The TGI with A549 NSCLC was greater than 100 µM; with CCRF-CEM leukemia, 76.4 µM.

Turning to `C=C1C(=O)O[C@H]2[C@H]1CC/C(COC(=O)c1cc3cc(F)ccc3[nH]1)=C\CC[C@@]1(C)O[C@@H]21`, the GI50 in the experiment on HCT-15 colon is 1150 nM; in the experiment on SK-MEL-5 melanoma, 1850 nM; in the experiment on HOP-92 NSCLC, 1380 nM; with MALME-3M melanoma it was 1670 nM; in the experiment on HCC-2998 colon, 2020 nM; in the experiment with LOX IMVI melanoma, 1050 nM. Further, the GI50 with HT29 colon was 1130 nM; in the experiment with A549 NSCLC, 3.08 µM; in the experiment with CCRF-CEM leukemia it was 919 nM. For the same compound, the TGI with HCT-15 colon amounted to 3.34 µM; with SK-MEL-5 melanoma, 3.84 µM; with HOP-92 NSCLC it was 3.21 µM; in the experiment with MALME-3M melanoma, 3.53 µM; in the experiment on HCC-2998 colon, 3.74 µM; in the experiment with LOX IMVI melanoma, 2.46 µM. Also, the TGI came to 3.14 µM with HT29 colon, 8.73 µM in the experiment on A549 NSCLC and 6.52 µM in the experiment on CCRF-CEM leukemia.

`O=C(c1ccccc1)C(c1ccccc1)C1(O)C(=O)Nc2c(Cl)cc(Cl)cc21` (configuration not stated): the TGI with HCT-15 colon was greater than 100 µM; with SK-MEL-5 melanoma, 30.7 µM; in the experiment with HOP-92 NSCLC, 40 µM; in the experiment on MALME-3M melanoma it was 32.7 µM; in the experiment on HCC-2998 colon it was 33.8 µM; in the experiment on LOX IMVI melanoma, 42.8 µM. The TGI in the experiment with HT29 colon turned out to be 58 µM; in the experiment with A549 NSCLC it was 41.8 µM; in the experiment with CCRF-CEM leukemia, 49.7 µM.

For `O=C(c1ccccc1)C(C(=O)c1ccccc1)C1(O)C(=O)c2ccccc2C1=O`, the TGI with HCT-15 colon is greater than 100 µM; with HOP-92 NSCLC it was 64.6 µM; in the experiment with MALME-3M melanoma, 96.6 µM; in the experiment on HCC-2998 colon, greater than 100 µM; in the experiment with LOX IMVI melanoma, greater than 100 µM; with HT29 colon, greater than 100 µM. Besides, the TGI in the experiment with A549 NSCLC is greater than 100 µM; in the experiment with CCRF-CEM leukemia it was 83 µM.

Take `Cc1nc2c(nc1C)C(=O)c1cc(O)ccc1C2=O`: the TGI with HCT-15 colon was greater than 67.3 µM; in the experiment on SK-MEL-5 melanoma, 29.6 µM; with HOP-92 NSCLC, greater than 100 µM; in the experiment on MALME-3M melanoma, 43.7 µM; in the experiment on HCC-2998 colon, greater than 100 µM; in the experiment with LOX IMVI melanoma, greater than 100 µM. Further, the TGI in the experiment on HT29 colon was greater than 87.2 µM; in the experiment on A549 NSCLC, greater than 100 µM; in the experiment with CCRF-CEM leukemia it was greater than 100 µM.

Turning to `O=C1CC(O)C=C1Nc1ccc(Cl)cc1` (configuration not stated), the TGI in the experiment on SK-MEL-5 melanoma was greater than 100 µM; with HOP-92 NSCLC, greater than 100 µM; in the experiment on MALME-3M melanoma it was greater than 100 µM; in the experiment with HCC-2998 colon it was 44.5 µM; with LOX IMVI melanoma it was greater than 100 µM; with HT29 colon, greater than 100 µM. The TGI in the experiment with A549 NSCLC is 35.5 µM; in the experiment with CCRF-CEM leukemia it was greater than 100 µM.

Turning to `Nc1nc(SCc2ccccn2)c2ncn(C3CCCC3)c2n1`, the TGI with HCT-15 colon, with SK-MEL-5 melanoma, in the experiment with BT-549 breast, in the experiment on MALME-3M melanoma, in the experiment with HCC-2998 colon and with LOX IMVI melanoma was greater than 100 µM in each case. Besides, the TGI in the experiment with HT29 colon, in the experiment with A549 NSCLC and in the experiment with CCRF-CEM leukemia was greater than 100 µM throughout.

Regarding `O=C(CNc1nncs1)NO`, the TGI with HCT-15 colon, in the experiment on HOP-92 NSCLC, in the experiment with MALME-3M melanoma, in the experiment on HCC-2998 colon, with HT29 colon and in the experiment on A549 NSCLC was greater than 100 µM throughout.

For the compound `COc1ccc(-c2nc3sc(C)cn3c2/C=C/C(=O)c2cc(OC)c(OC)c(OC)c2)cc1`, the GI50 in the experiment with HCT-15 colon is 3350 nM; in the experiment on SK-MEL-5 melanoma, 1510 nM; in the experiment with BT-549 breast, 4.13 µM; with HCC-2998 colon it was 3710 nM; with LOX IMVI melanoma it was 3510 nM; in the experiment on HT29 colon, 3950 nM. The GI50 is 3.37 µM with A549 NSCLC and 3060 nM in the experiment on CCRF-CEM leukemia. Moreover, the TGI in the experiment with HCT-15 colon is greater than 100 µM; in the experiment on SK-MEL-5 melanoma, 2.91 µM; in the experiment with BT-549 breast it was greater than 100 µM; with HCC-2998 colon it was 7.66 µM; with LOX IMVI melanoma, greater than 100 µM; with HT29 colon, greater than 100 µM. Further, the TGI with A549 NSCLC and in the experiment with CCRF-CEM leukemia was greater than 100 µM throughout.

`CC1OC(OCC2OC(Oc3c(-c4ccc(O)cc4)oc4cc(O)cc(O)c4c3=O)C(OC3OCC(O)(CO)C3O)C(O)C2O)C(O)C(O)C1O` (configuration not stated): the TGI in the experiment with HCT-15 colon was 53.2 µM; in the experiment on SK-MEL-5 melanoma it was greater than 100 µM; with HOP-92 NSCLC, greater than 100 µM; in the experiment on MALME-3M melanoma it was greater than 100 µM; with HCC-2998 colon, greater than 100 µM; with LOX IMVI melanoma it was greater than 100 µM. Also, the TGI in the experiment with HT29 colon, with A549 NSCLC and with CCRF-CEM leukemia was greater than 100 µM throughout.

For `O=[N+]([O-])c1ccc(C(c2c[nH]c3ccccc23)c2c[nH]c3ccccc23)cc1`, the TGI with HCT-15 colon stood at 29.7 µM; in the experiment on SK-MEL-5 melanoma, 20.2 µM; in the experiment on BT-549 breast, 14.3 µM; in the experiment with MALME-3M melanoma it was 37.6 µM; in the experiment on HCC-2998 colon, 39.3 µM; in the experiment with LOX IMVI melanoma it was 41.2 µM. The TGI in the experiment on HT29 colon turned out to be 31.8 µM; in the experiment with A549 NSCLC it was 41.4 µM; in the experiment on CCRF-CEM leukemia, 1.17 µM.

In the case of `CC1=C(C(=O)Nc2ccccc2C)C(c2ccccc2)C(C(=O)Nc2ccccc2C)=C(C)N1`, the TGI was greater than 100 µM in the experiment on HCT-15 colon; 90 µM in the experiment on SK-MEL-5 melanoma; 41.2 µM in the experiment with HOP-92 NSCLC; greater than 100 µM in the experiment on MALME-3M melanoma; greater than 100 µM in the experiment with HCC-2998 colon; 42.6 µM with LOX IMVI melanoma. Besides, the TGI with HT29 colon was greater than 100 µM; with A549 NSCLC it was greater than 100 µM; in the experiment on CCRF-CEM leukemia, 73.9 µM.

As to `CCOC(=O)C(=O)Nc1nc2c(s1)C(=O)c1ccccc1C2=O`, the TGI with HCT-15 colon came to 29.6 µM; in the experiment on SK-MEL-5 melanoma, 33.7 µM; in the experiment with HOP-92 NSCLC, 25.3 µM; in the experiment with MALME-3M melanoma, 25.8 µM; with HCC-2998 colon, 31.6 µM; in the experiment on HT29 colon it was 27.4 µM. For the same compound, the TGI with A549 NSCLC is 34.4 µM; with CCRF-CEM leukemia, 69.8 µM.

Regarding `Cc1ccc(OCC(=O)N2N=C(c3ccccc3)CC2(O)c2ccccc2)cc1` (configuration not stated), the TGI was greater than 100 µM in the experiment with HCT-15 colon; greater than 100 µM in the experiment with HOP-92 NSCLC; greater than 100 µM in the experiment on MALME-3M melanoma; greater than 100 µM with HCC-2998 colon; greater than 100 µM in the experiment with LOX IMVI melanoma; 82.8 µM with A549 NSCLC.

On to `O=c1oc2cc(OS(=O)(=O)c3ccc(F)cc3)ccc2c2c1CCCCC2`, for which the GI50 with SK-MEL-5 melanoma was 5690 nM; in the experiment on HOP-92 NSCLC, 4050 nM; in the experiment with MALME-3M melanoma, greater than 100000 nM; with HCC-2998 colon, greater than 100000 nM; with LOX IMVI melanoma, greater than 100000 nM; in the experiment with HT29 colon, 1040 nM. The GI50 in the experiment with A549 NSCLC was greater than 100 µM. In addition, the TGI in the experiment with SK-MEL-5 melanoma was greater than 100 µM; in the experiment with HOP-92 NSCLC it was 95.1 µM; in the experiment with MALME-3M melanoma, greater than 100 µM; in the experiment on HCC-2998 colon it was greater than 100 µM; in the experiment with LOX IMVI melanoma, greater than 100 µM; in the experiment on HT29 colon it was greater than 100 µM. Besides, the TGI in the experiment with A549 NSCLC was greater than 100 µM.

With `CCc1cccc(C(C)C)c1NC(=O)C(=O)C(Cc1nc2ccccc2[nH]c1=O)C(=O)OC` (configuration not stated), the TGI with HCT-15 colon, in the experiment on SK-MEL-5 melanoma, with HOP-92 NSCLC, with MALME-3M melanoma, with HCC-2998 colon and with LOX IMVI melanoma was greater than 100 µM in each case. Also, the TGI in the experiment with HT29 colon, with A549 NSCLC and in the experiment with CCRF-CEM leukemia was greater than 100 µM in each case.

On to `CCC[CH2][Sn-]([CH2]CCC)([CH2]CCC)[O]c1cc(Cl)c(Cl)cc1Cl`, for which the GI50 in the experiment on HCT-15 colon was 165 nM; in the experiment on SK-MEL-5 melanoma it was 168 nM; with HOP-92 NSCLC, 106 nM; with MALME-3M melanoma, 174 nM; in the experiment on HCC-2998 colon, 176 nM; in the experiment on LOX IMVI melanoma, 175 nM. Besides, the GI50 in the experiment on HT29 colon is 162 nM; in the experiment on A549 NSCLC it was 0.205 µM. The TGI with HCT-15 colon worked out at 0.33 µM; in the experiment with SK-MEL-5 melanoma, 0.335 µM; with HOP-92 NSCLC, 0.395 µM; in the experiment on MALME-3M melanoma, 0.379 µM; with HCC-2998 colon, 0.334 µM; in the experiment on LOX IMVI melanoma it was 0.34 µM. In addition, the TGI in the experiment on HT29 colon amounted to 0.404 µM; with A549 NSCLC, 0.502 µM.

With `O=C(O)CSc1n[nH]c(-c2ccc(O)cc2)n1`, the TGI in the experiment on HCT-15 colon, in the experiment with SK-MEL-5 melanoma, with HOP-92 NSCLC, with MALME-3M melanoma, in the experiment on HCC-2998 colon and with HT29 colon was greater than 100 µM each time. Moreover, the TGI in the experiment with A549 NSCLC and with CCRF-CEM leukemia was greater than 100 µM throughout.

On to `O=C(O)c1c(-c2cccc3ccccc23)sc(-c2cccc3ccccc23)c1C(=O)O`, for which the TGI with HCT-15 colon, in the experiment with SK-MEL-5 melanoma, in the experiment with HOP-92 NSCLC, in the experiment with MALME-3M melanoma, in the experiment with HCC-2998 colon and in the experiment with LOX IMVI melanoma was greater than 100 µM each time. Also, the TGI in the experiment with HT29 colon, in the experiment with A549 NSCLC and in the experiment on CCRF-CEM leukemia was greater than 100 µM each time.

As for `COC(=O)C1CC2(CC3=C1CCCC3)OCCO2` (configuration not stated), the TGI in the experiment on HCT-15 colon, in the experiment with SK-MEL-5 melanoma, in the experiment on HOP-92 NSCLC, in the experiment with MALME-3M melanoma, in the experiment on HCC-2998 colon and in the experiment with LOX IMVI melanoma was greater than 100 µM each time. Besides, the TGI in the experiment on HT29 colon, in the experiment with A549 NSCLC and in the experiment with CCRF-CEM leukemia was greater than 100 µM in each case.
